Laboratory results taken from ChEMBL document CHEMBL1201862, “PubChem BioAssay data set” (2004).
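Tested at 5 concentrations; 48 h exposure; 96-well plates; endpoints linearly interpolated, else capped at highest concentration. Abbreviation: GI50, concentration required for 50% inhibition of growth.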 The source made the active and inactive calls. Rule as the data show it: active = GI50 up to about 1.1 µM and inactive = higher.

Experiments:
Test in all cases: NCI anticancer screen, dose series, 48 h
[1] = tested on: K562
[2] = tested on: A549
[3] = tested on: MDA-N
[4] = tested on: HOP-92
[5] = tested on: HOP-62
[6] = tested on: SK-OV-3
[7] = tested on: PC-3
[8] = tested on: HCT-116
[9] = tested on: HT-29
[10] = tested on: UACC-62
[11] = tested on: MDA-MB-435
[12] = tested on: SF-539
[13] = tested on: CCRF-CEM
[14] = tested on: UO-31
[15] = tested on: KM12
[16] = tested on: SK-MEL-28
[17] = tested on: SN12C
[18] = tested on: SF-268
[19] = tested on: M14
[20] = tested on: UACC-257
[21] = tested on: SR
[22] = tested on: MCF7
[23] = tested on: HL-60
[24] = tested on: TK-10
[25] = tested on: NCI-H522
[26] = tested on: SK-MEL-5
[27] = tested on: T47D
[28] = tested on: NCI-H226
[29] = tested on: SW-620
[30] = tested on: Hs-578T
[31] = tested on: A498
[32] = tested on: SNB-19
[33] = tested on: RPMI-8226
[34] = tested on: COLO 205
[35] = tested on: OVCAR-5
[36] = tested on: DU-145
[37] = tested on: U-251
[38] = tested on: HCT-15
[39] = tested on: EKVX
[40] = tested on: RXF 393
[41] = tested on: MDA-MB-231
[42] = tested on: OVCAR-3
[43] = tested on: LOX IMVI
[44] = tested on: MOLT-4
[45] = tested on: Malme-3M
[46] = tested on: BT-549
[47] = tested on: SF-295
[48] = tested on: CAKI-1
[49] = tested on: NCI/ADR-RES
[50] = tested on: NCI-H23
[51] = tested on: ACHN
[52] = tested on: 786-0
[53] = tested on: NCI-H460
[54] = tested on: SNB-75
[55] = tested on: SK-MEL-2
[56] = tested on: OVCAR-8
[57] = tested on: OVCAR-4
[58] = tested on: IGROV-1
[59] = tested on: HCC 2998

Measured: GI50

O=C(O)C1(C(=O)O)CCN(S(=O)(=O)c2ccccc2)CC1
> 100 µM: [38]
inactive: [1] > 100 µM | [2] > 100 µM | [3] > 100 µM | [4] > 100 µM | [5] > 100 µM | [6] > 100 µM | [7] > 100 µM | [8] > 100 µM | [9] > 100 µM | [10] > 100 µM | [11] > 100 µM | [12] > 100 µM | [13] > 100 µM | [14] > 100 µM | [15] > 100 µM | [16] > 100 µM | [17] > 100 µM | [18] > 100 µM | [19] > 100 µM | [20] > 100 µM | [21] > 100 µM | [22] > 100 µM | [23] > 100 µM | [24] > 100 µM | [25] > 100 µM | [26] > 100 µM | [27] > 100 µM | [28] > 100 µM | [29] > 100 µM | [30] > 100 µM | [31] > 100 µM | [32] > 100 µM | [33] > 100 µM | [34] > 100 µM | [35] > 100 µM | [36] > 100 µM | [37] > 100 µM | [39] > 100 µM | [40] > 100 µM | [41] > 100 µM | [42] > 100 µM | [43] > 100 µM | [44] > 100 µM | [45] > 100 µM | [46] > 100 µM | [47] > 100 µM | [48] > 100 µM | [49] > 100 µM | [50] > 100 µM | [51] > 100 µM | [52] > 100 µM | [53] > 100 µM | [54] > 100 µM | [55] > 100 µM | [56] > 100 µM | [57] > 100 µM | [58] > 100 µM

CCSC1=C(C#N)C2(CCCCC2)C2=C(O)CC(C)(C)CC2=N1
inactive: [1] > 100 µM | [2] 34.4 µM | [3] > 100 µM | [4] 11.4 µM | [7] 28.9 µM | [8] > 100 µM | [9] > 100 µM | [10] 25.6 µM | [11] 42.1 µM | [12] 51.8 µM | [13] > 100 µM | [14] 16.6 µM | [15] > 100 µM | [16] 56.8 µM | [17] 60.7 µM | [18] 45 µM | [19] > 100 µM | [20] 5.96 µM | [21] > 100 µM | [22] 48.3 µM | [23] > 100 µM | [24] 11.1 µM | [25] 39.4 µM | [26] 40.9 µM | [27] 86.1 µM | [28] 53.6 µM | [29] > 100 µM | [30] 52.1 µM | [31] 24.4 µM | [32] 25.2 µM | [33] 70.3 µM | [34] > 100 µM | [35] > 100 µM | [36] 25.5 µM | [37] 29.9 µM | [39] 24.3 µM | [40] 52.7 µM | [41] 45.3 µM | [43] > 100 µM | [44] > 100 µM | [45] 17.3 µM | [46] 14.2 µM | [48] 35.3 µM | [49] 39.4 µM | [50] 32.4 µM | [51] 24.7 µM | [52] 31.8 µM | [54] 21.9 µM | [55] 54.8 µM | [56] 36.5 µM | [57] 18.8 µM | [58] 26.5 µM
active: [59] 1.01 µM | [53] < 0.01 µM
64.7 µM: [38]

CC(=O)OC[C@@H]1[C@H]2CC[C@]3(C)[C@@H](OC(C)=O)CC[C@H]3[C@@H]2CC[C@H]1C1(C)SCCS1
inactive: [1] > 25 µM | [59] > 25 µM | [2] > 25 µM | [3] > 25 µM | [4] > 25 µM | [5] > 25 µM | [7] > 25 µM | [8] > 25 µM | [9] > 25 µM | [11] > 25 µM | [12] > 25 µM | [13] > 25 µM | [14] > 25 µM | [15] > 25 µM | [16] > 25 µM | [17] > 25 µM | [18] > 25 µM | [19] > 25 µM | [20] > 25 µM | [21] > 25 µM | [22] > 25 µM | [23] > 25 µM | [24] > 25 µM | [25] > 25 µM | [26] 23.2 µM | [27] > 25 µM | [28] > 25 µM | [29] > 25 µM | [30] > 25 µM | [31] > 25 µM | [32] > 25 µM | [33] > 25 µM | [34] > 25 µM | [35] > 25 µM | [36] > 25 µM | [37] > 25 µM | [39] > 25 µM | [40] > 25 µM | [41] > 25 µM | [42] > 25 µM | [43] > 25 µM | [44] > 25 µM | [45] > 25 µM | [46] > 25 µM | [47] > 25 µM | [48] > 25 µM | [49] > 25 µM | [50] > 25 µM | [51] > 25 µM | [52] > 25 µM | [53] > 25 µM | [54] > 25 µM | [56] > 25 µM | [57] > 25 µM | [58] > 25 µM
> 25 µM: [38]

O=C(O)C(C1NCCS1)N1C(=O)c2ccccc2C1=O (configuration not stated)
inactive: [1] > 100 µM | [2] > 100 µM | [3] > 100 µM | [4] > 100 µM | [5] > 100 µM | [6] > 100 µM | [7] > 100 µM | [8] > 100 µM | [9] > 100 µM | [10] > 100 µM | [11] > 100 µM | [12] > 100 µM | [13] > 100 µM | [14] > 100 µM | [15] > 100 µM | [16] > 100 µM | [17] > 100 µM | [18] > 100 µM | [19] > 100 µM | [20] > 100 µM | [21] > 100 µM | [22] > 100 µM | [23] > 100 µM | [24] > 100 µM | [25] > 100 µM | [26] > 100 µM | [27] > 100 µM | [28] > 100 µM | [29] > 100 µM | [30] > 100 µM | [31] > 100 µM | [32] > 100 µM | [33] > 100 µM | [34] > 100 µM | [35] > 100 µM | [36] > 100 µM | [37] > 100 µM | [39] > 100 µM | [40] > 100 µM | [41] > 100 µM | [42] > 100 µM | [43] > 100 µM | [44] > 100 µM | [45] > 100 µM | [46] > 100 µM | [47] > 100 µM | [48] > 100 µM | [49] > 100 µM | [50] > 100 µM | [51] > 100 µM | [52] > 100 µM | [53] > 100 µM | [54] > 100 µM | [55] > 100 µM | [56] > 100 µM | [57] > 100 µM | [58] > 100 µM
> 100 µM: [38]
